# Experiments:
# [1] = Half life of compound by UV-Visible spectrophotometric method; format: physicochemical
# CWR22R = assay: Growth inhibition of human 22Rv1 cells preincubated for 15 mins followed by UV irradiation and measured after 72 hrs by Celltiter-Glo assay; format: functional; conditions: time 72.25 hrs
half-life [1],Structure (SMILES),growth inhibition (GI) (CWR22R)
58 min,COc1cc(COC(=O)N2C(=O)CCC(N3C(=O)c4cccc(OCC(=O)NCCCCNC(=O)C[C@@H]5N=C(c6ccc(Cl)cc6)c6c(sc(C)c6C)-n6c(C)nnc65)c4C3=O)C2=O)c([N+](=O)[O-])cc1OC (some centres not stated),
,Cc1sc2c(c1C)C(c1ccc(Cl)cc1)=N[C@@H](CC(=O)NCCOCCOCCNC(=O)COc1cccc3c1C(=O)N(C1CCC(=O)N(COC(C)c4cc5c(cc4[N+](=O)[O-])OCO5)C1=O)C3=O)c1nnc(C)n1-2 (some centres not stated),<=39%
